In this assay the target is T1, PPD17 (omega-3 desaturase; delta-17 desaturase) (Phytophthora nicotianae, UniProt V9F8I2).
T1 construct: gene F443_08426; full length, 361 residues, codon-optimized oPPD17 in pYES2/NT C (His-tagged), expressed in S. cerevisiae INVSc1; 4 predicted TM domains; C-terminal KTKST; His boxes HDAGH, HRHHH, HQIHH
T1 sequence (V9F8I2 1-361): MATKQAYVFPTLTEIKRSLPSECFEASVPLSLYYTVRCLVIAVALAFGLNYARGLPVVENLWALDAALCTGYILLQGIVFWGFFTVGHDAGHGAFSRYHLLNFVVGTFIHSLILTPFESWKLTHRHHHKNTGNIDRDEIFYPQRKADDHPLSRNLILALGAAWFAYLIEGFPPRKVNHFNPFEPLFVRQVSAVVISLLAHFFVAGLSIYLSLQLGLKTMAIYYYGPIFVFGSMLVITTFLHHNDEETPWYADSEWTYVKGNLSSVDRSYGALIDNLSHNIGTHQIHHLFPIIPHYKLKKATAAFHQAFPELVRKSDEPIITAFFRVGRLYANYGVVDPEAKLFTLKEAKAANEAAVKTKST
In words: fatty acid feeding of yeast expressing PPD17, FAME analysis by GC-MS. Format: cell-based. Conditions: free acid fed to culture, 0.2 mM, 12 °C and 28 °C; product eicosatetraenoic acid.

With `CCCCC/C=C\C/C=C\C/C=C\CCCCCCC(=O)O` [DGLA, dihomo-gamma-linolenic acid], the “fatty acid feeding of yeast expressing PPD17, FAME analysis by GC-MS” value is “PPD17 had stronger substrate preference for C20-PUFA substrate AA and DGLA”.

The record behind these values is publication PMC6102326, “Characterization of an Omega-3 Desaturase From Phytophthora parasitica and Application for Eicosapentaenoic Acid Production in Mortierella alpina” (Frontiers in Microbiology, 2018).
